Key:
Assay type in all cases: cell-based, human
184B5 cells = experiment: Crystal violet cellular proliferation assay; conditions: 100 μg/mL
Procedure: The 184B5 line is an immortalized, non-tumorogenic cell line derived from primary cultures of HMECs immortalized with benzo(a)pyrene (provided by Dr. M. R. Stampfer) and was maintained in Clonetics mammary epithelial cells medium (MEGM).
One×10^3 cells per well were seeded in 96 well dishes (Coming Costar, Cambridge, Mass.). Primary cultures of HMECs, A1N4 and 184B5 cells were evaluated at two different cell densities (seeded at 1×10^3 and 2×10^3 per well). After 24 hours of cell attachment, cells in triplicate wells were treated with pentamer at a concentration of 100 μg/mL. The cells on the same plate were treated with corresponding controls: (i) media containing DMSO, and (ii) media with no additions.
Cells were treated for 1, 2, 3, 6, 8 and 10 days, but in some cases, the samples were collected at days 2, 3, 4, 7 and 10 post-treatment. Each treatment was conducted in triplicate. Samples were collected at each time point as follows: media was removed and 50 μL of crystal violet solution (0.1% of crystal violet in 0.1 M citric acid solution) was added to each well at room temperature and plates were incubated for 15 minutes, followed by washing with deionized water. […] The optical density (OD) of samples was read at 550 nm on an Ultramark Microplate Imagining System (BioRad, Philadelphia, Pa.). […] Statistical significance was determined using the t test analysis.

PARP = PARP cleavage in MCF-7 cells; conditions: 48 hours treatment
Text: Rabbit polyclonal poly (ADP-ribose) polymerase (PARP) (H-250) was obtained from Santa Cruz Biotechnology Inc., (Santa Cruz, Calif.). α-Tubulin antibody was obtained from Neomarkers, Fremont, Calif. All antibodies used for proteomics analysis were obtained from Cell Signaling (Beverly, Mass.), Upstate Biotechnology (Lake Placid, N.Y.), Neomarkers (Fremont, Calif.) and Santa Cruz (Santa Cruz, Calif.) (Table 2). Referring to Table 2, Abs designated as “mouse” were monoclonal Abs, and Abs designated as “rabbit” were polyclonal Abs. The ECL detection reagent was obtained from Amersham (Arlington Heights, Ill.).
To determine whether depolarization of the mitochondrial membrane, induced by pentamer leads to apoptotic cellular death in human breast cancer cells lines, MDA MB-231 and MCF-7 cells were examined for PARP cleavage products. Since PARP is one of the downstream substrates of the caspase cascade, it is an excellent marker of apoptosis [Soldani, C. et al., Apoptosis, 7: 321-328, 2002].

Stat5 = experiment: Confirmation of LPS results by immunoblotting, MDA MB-231 cells; conditions: PVDF membranes
Procedure: (§1) The proteins affected by pentamer, as detected by LPS, were analyzed further by immunoblotting. Antibodies against the following proteins were used: Cdc2 (Tyr15), FKHR (Ser256), p53 (Ser37, Ser46 and Ser392), PKC-δ (Ser643), PKC-θ (Ser643/676), pRb (Ser795 and Ser807/811), SAPK/JNK (Thr183/Tyr185) and Stat 5 (Tyr694) (all antibodies were obtained from Cell Signaling).
(§2) Protein pellets from pentamer-treated MDA MB-231, MDA MB-468 and MCF-7 cells and corresponding DMSO-treated controls were lysed in PBS with 1% SDS and sonicated for 15 seconds at a power of five watts. Samples were then centrifuged at 10,000 rpm and supernatants transferred into clean tubes. Protein concentration was determined as descried above. Ten jig of each protein sample was separated by PAGE on 4-20% gradient gels (BioRad, Philadelphia, Pa.). Gels were either transferred to PVDF membranes (BioRad) or P-FILM membrane (stacks of 10 membranes) according to the manufacturer's instructions (20/20 Gene Systems). PVDF membranes were blocked for 1 hour in 0.5% casein solution (Vector Laboratories, Burlingame, Calif.), prior to incubation with primary antibodies. […] The membranes were incubated overnight at 4° C. in 1:500 dilutions of primary antibodies, washed three times in TBST for five minutes, incubated in HRP-conjugated secondary antibodies, washed again and incubated in ECL Plus Reagent (Amersham). Signals were visualized on BIOMAX MR film (Kodak, Rochester, N.Y.). Following incubation with primary antibodies, membranes were incubated in anti-GAPDH antibody (1:500 dilution; Chemicon, Temecula, Calif.). The presence of this protein was visualized with secondary antibody conjugated to alkaline phosphatase DuoLux substrate (Vector Laboratories).

SAPK/JNK = experiment: as above; conditions: PVDF membranes
Procedure: as §1, §2

PKC-δ = experiment: as above; conditions: PVDF membranes
Procedure: as §1, §2

PKC-θ = experiment: as above; conditions: PVDF membranes
Procedure: as §1, §2

Question: With Oc1cc(O)c2c(c1)O[C@H](c1ccc(O)c(O)c1)[C@H](O)[C@H]2c1c(O)cc(O)c2c1O[C@H](c1ccc(O)c(O)c1)[C@H](O)[C@H]2c1c(O)cc(O)c2c1O[C@H](c1ccc(O)c(O)c1)[C@H](O)[C@H]2c1c(O)cc(O)c2c1O[C@H](c1ccc(O)c(O)c1)[C@H](O)[C@H]2c1c(O)cc(O)c2c1O[C@H](c1ccc(O)c(O)c1)[C@H](O)C2 [pentamer, pentameric procyanidin] as the compound, how does the “day post-treatment at which significant sensitivity to pentamer was exhibited” value (184B5 cells) read?
Answer: 10 days

Question: What about the “growth inhibited, in comparison to DMSO-treated controls” value (184B5 cells) of the same compound?
Answer: 2.8 fold

Question: And the “cleaved PARP fragment” value (PARP)?
Answer: no cleaved PARP fragment was detected

Question: What about the “full-length PARP (116 kDa)” value (PARP) of the same compound?
Answer: decrease

Question: What about the “confirmation of LPS result on Stat5 by immunoblotting” value (Stat5) of the same compound?
Answer: not confirmed

Question: And the “confirmation of LPS result on SAPK/JNK by immunoblotting” value (SAPK/JNK)?
Answer: not confirmed

Question: What about the “confirmation of LPS result on PKC-δ by immunoblotting” value (PKC-δ) of the same compound?
Answer: not confirmed

Question: What about the “confirmation of LPS result on PKC-θ by immunoblotting” value (PKC-θ) of the same compound?
Answer: not confirmed

Source: patent US7371776B2, “Methods and compositions for treating cancer” (Mars, Incorporated, priority 2004, dated 2008)
